Source: the CheMixHub viscosity set

Assay: xn = mol fraction of the nth substance listed

Cc1ncc[nH]1 + O
viscosity [mPa·s], 100 kPa
Conditions | x1 = 0.0238 | x1 = 0.0373 | x1 = 0.052 | x1 = 0.0682 | x1 = 0.086
298.15 K | 1.151 | 1.312 | 1.494 | 1.718 | 1.971
303.15 K | 1.02 | 1.16 | 1.315 | 1.498 | 1.707
313.15 K | 0.838 | 0.933 | 1.07 | 1.214 | 1.379
323.15 K | 0.696 | 0.767 | 0.87 | 0.978 | 1.1

F.[F-].[Na+] + O
viscosity [mPa·s], 100 kPa
Conditions | x1 = 0.003 | x1 = 0.006 | x1 = 0.009
298.15 K | 0.939 | 0.9963 | 1.068
323.15 K | 0.578 | 0.61 | 0.657

NCC(=O)[O-].[Na+] + O
viscosity [mPa·s], 101 kPa
Conditions | x1 = 0.01 | x1 = 0.0194 | x1 = 0.0289 | x1 = 0.0371 | x1 = 0.048
298.15 K | 1.124 | 1.41 | 1.747 | 2.15 | 2.82
308.15 K | 0.904 | 1.106 | 1.369 | 1.662 | 2.13
323.15 K | 0.677 | 0.818 | 0.993 | 1.183 | 1.479

O=C1CCCO1 + O
viscosity [mPa·s]
Conditions | 298.15 K | 303.15 K | 308.15 K | 313.15 K | 318.15 K | 323.15 K
101 kPa, x1 = 0.0503 | 1.233 | 1.096 | 0.9821 | 0.8569 | 0.8041 | –
101 kPa, x1 = 0.0995 | 1.481 | 1.312 | 1.171 | 1.031 | 0.9551 | –
101 kPa, x1 = 0.1997 | 1.783 | 1.577 | 1.407 | 1.248 | 1.143 | –
101 kPa, x1 = 0.2994 | 1.896 | 1.686 | 1.509 | 1.346 | 1.232 | –
101 kPa, x1 = 0.3997 | 1.915 | 1.711 | 1.538 | 1.379 | 1.266 | –
101 kPa, x1 = 0.499 | 1.875 | 1.688 | 1.528 | 1.379 | 1.273 | –
101 kPa, x1 = 0.5994 | – | 1.637 | 1.493 | 1.356 | 1.26 | –
101 kPa, x1 = 0.701 | 1.754 | 1.603 | 1.471 | 1.343 | 1.255 | –
101 kPa, x1 = 0.7995 | 1.716 | 1.578 | 1.457 | 1.337 | 1.256 | –
101 kPa, x1 = 0.8996 | 1.697 | 1.569 | 1.457 | 1.343 | 1.267 | –
101 kPa, x2 = 0.3 | 1.645 | – | – | – | – | –
101 kPa, x2 = 0.9 | 1.385 | – | – | – | – | –
101.33 kPa, x2 = 0.0898 | – | 1.56 | – | 1.339 | – | 1.163
101.33 kPa, x2 = 0.2337 | – | 1.595 | – | 1.349 | – | 1.159
101.33 kPa, x2 = 0.6207 | – | 1.674 | – | 1.349 | – | 1.112
101.33 kPa, x2 = 0.9031 | – | 1.257 | – | 1.005 | – | 0.8246

OCC(F)(F)F + O
Conditions | viscosity [mPa·s]
298 K, 101.3 kPa, x1 = 0.026 | 1.152
298 K, 101.3 kPa, x1 = 0.0503 | 1.358
298 K, 101.3 kPa, x1 = 0.075 | 1.528
298 K, 101.3 kPa, x1 = 0.0984 | 1.634
298 K, 101.3 kPa, x1 = 0.1984 | 1.882
298 K, 101.3 kPa, x1 = 0.3016 | 1.876
298 K, 101.3 kPa, x1 = 0.4012 | 1.819
298 K, 101.3 kPa, x1 = 0.5015 | 1.757
298 K, 101.3 kPa, x1 = 0.5993 | 1.713
298 K, 101.3 kPa, x1 = 0.6501 | 1.656
298 K, 101.3 kPa, x1 = 0.8029 | 1.651
298 K, 101.3 kPa, x1 = 0.9024 | 1.673
298.15 K, 100 kPa, x1 = 0.1022 | 1.608
298.15 K, 100 kPa, x1 = 0.2084 | 1.828
298.15 K, 100 kPa, x1 = 0.3227 | 1.802
298.15 K, 100 kPa, x1 = 0.4087 | 1.743
298.15 K, 100 kPa, x1 = 0.5727 | 1.665
298.15 K, 100 kPa, x1 = 0.7111 | 1.621
298.15 K, 100 kPa, x1 = 0.9104 | 1.64
298.15 K, 101 kPa, x1 = 0.0196 | 1.061
298.15 K, 101 kPa, x1 = 0.04313 | 1.271
298.15 K, 101 kPa, x1 = 0.07168 | 1.446
298.15 K, 101 kPa, x1 = 0.1072 | 1.642
298.15 K, 101 kPa, x1 = 0.1525 | 1.773
298.15 K, 101 kPa, x1 = 0.2128 | 1.852
298.15 K, 101 kPa, x1 = 0.296 | 1.865
298.15 K, 101 kPa, x1 = 0.4193 | 1.782
298.15 K, 101 kPa, x1 = 0.6192 | 1.667
303 K, 101.3 kPa, x1 = 0.026 | 0.999
303 K, 101.3 kPa, x1 = 0.0503 | 1.163
303 K, 101.3 kPa, x1 = 0.075 | 1.312
303 K, 101.3 kPa, x1 = 0.0984 | 1.395
303 K, 101.3 kPa, x1 = 0.1984 | 1.588
303 K, 101.3 kPa, x1 = 0.3016 | 1.609
303 K, 101.3 kPa, x1 = 0.4012 | 1.566
303 K, 101.3 kPa, x1 = 0.5015 | 1.523
303 K, 101.3 kPa, x1 = 0.5993 | 1.492
303 K, 101.3 kPa, x1 = 0.6501 | 1.45
303 K, 101.3 kPa, x1 = 0.8029 | 1.444
303 K, 101.3 kPa, x1 = 0.9024 | 1.468
308 K, 101.3 kPa, x1 = 0.026 | 0.887
308 K, 101.3 kPa, x1 = 0.0503 | 1.017
308 K, 101.3 kPa, x1 = 0.075 | 1.138
308 K, 101.3 kPa, x1 = 0.0984 | 1.214
308 K, 101.3 kPa, x1 = 0.1984 | 1.398
308 K, 101.3 kPa, x1 = 0.3016 | 1.406
308 K, 101.3 kPa, x1 = 0.4012 | 1.375
308 K, 101.3 kPa, x1 = 0.5015 | 1.338
308 K, 101.3 kPa, x1 = 0.5993 | 1.305
308 K, 101.3 kPa, x1 = 0.6501 | 1.284
308 K, 101.3 kPa, x1 = 0.8029 | 1.278
308 K, 101.3 kPa, x1 = 0.9024 | 1.296
313 K, 101.3 kPa, x1 = 0.026 | 0.791
313 K, 101.3 kPa, x1 = 0.0503 | 0.899
313 K, 101.3 kPa, x1 = 0.075 | 1.002
313 K, 101.3 kPa, x1 = 0.0984 | 1.065
313 K, 101.3 kPa, x1 = 0.1984 | 1.223
313 K, 101.3 kPa, x1 = 0.3016 | 1.235
313 K, 101.3 kPa, x1 = 0.4012 | 1.211
313 K, 101.3 kPa, x1 = 0.5015 | 1.179
313 K, 101.3 kPa, x1 = 0.5993 | 1.159
313 K, 101.3 kPa, x1 = 0.6501 | 1.145
313 K, 101.3 kPa, x1 = 0.8029 | 1.136
313 K, 101.3 kPa, x1 = 0.9024 | 1.152
323.15 K, 100 kPa, x1 = 0.1022 | 0.85
323.15 K, 100 kPa, x1 = 0.2084 | 0.944
323.15 K, 100 kPa, x1 = 0.3227 | 0.949
323.15 K, 100 kPa, x1 = 0.4087 | 0.94
323.15 K, 100 kPa, x1 = 0.5727 | 0.911
323.15 K, 100 kPa, x1 = 0.7111 | 0.912
323.15 K, 100 kPa, x1 = 0.9104 | 0.935
